Data as given in patent publication US20060211765A1, “Novel compounds” (ASTRAZENECA AB, priority 2003, published 2006).

Biological target: T1, rhCRTh2 (Homo sapiens, UniProt Q9Y5Y4)
T1 construct: expressed in transfected cells; host or cells: HEK cells (membrane preparation)
T1 sequence (Q9Y5Y4 1-395): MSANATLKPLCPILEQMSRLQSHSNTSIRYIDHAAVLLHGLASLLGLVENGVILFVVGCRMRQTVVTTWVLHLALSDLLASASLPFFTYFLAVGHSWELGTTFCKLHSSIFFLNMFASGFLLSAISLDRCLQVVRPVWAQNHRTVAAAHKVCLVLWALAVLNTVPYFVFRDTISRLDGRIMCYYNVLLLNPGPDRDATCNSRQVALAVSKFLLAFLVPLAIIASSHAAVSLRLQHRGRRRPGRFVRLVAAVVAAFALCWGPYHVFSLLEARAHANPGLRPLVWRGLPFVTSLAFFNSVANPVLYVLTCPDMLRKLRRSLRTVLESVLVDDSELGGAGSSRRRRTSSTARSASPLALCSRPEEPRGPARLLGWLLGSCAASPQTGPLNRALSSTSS
Experiment: Ligand Binding Assay ([3H]PGD2 SPA on HEK cell membranes)
Details: [3H]PGD2 displacement, HEK cell membranes expressing rhCRTh2/Gα16, SPA beads
Procedure: [^3H]PGD2 was purchased from Perkin Elmer Life Sciences with a specific activity of 100-210 Ci/mmol. All other chemicals were of analytical grade.
HEK cells expressing rhCRTh2/Gα16 were routinely maintained in DMEM containing 10% Foetal Bovine Serum (HyClone), 1 mg/ml geneticin, 2 mM L-glutamine and 1% non-essential amino acids. For the preparation of membranes, the adherent transfected HEKcells were grown to confluence in two layer tissue culture factories (Fisher, catalogue number TKT-170-070E). Maximal levels of receptor expression were induced by addition of […] sodium butyrate for the last 18 hours of culture. […] The final pellet was re-suspended in 4 ml of membrane homogenisation buffer per cell factory used and the protein content determined. […]
All assays were performed in Corning clear bottomed, white 96-well NBS plates (Fisher). […] (The optimum coating concentrations were determined for each batch of membranes) The beads were pelleted by centrifugation (800×g for 7 minutes at 4° C.), washed once with assay buffer (50 mM HEPES pH 7.4 containing 5 mM magnesium chloride) and finally re-suspended in assay buffer at a bead concentration of 10 mg/ml. […]

| SMILES | IC50 [nM] |
| --- | --- |
| CCc1ccc(OCC(=O)O)c(-c2ccc(S(C)(=O)=O)cc2)c1 [Example 2, {[5-Ethyl-4′-(methylsulfonyl)biphenyl-2-yl]oxy}acetic acid] | 79.4 |
| CCS(=O)(=O)c1ccc(-c2cc(OC)ccc2OCC(=O)O)cc1 [Example 3, {[4′-(Ethylsulfonyl)-5-methoxybiphenyl-2-yl]oxy}acetic acid] | 251 |
